Legend:
[1] = cited from earlier work
[2] = system: rabbit retinal ganglion cells; experiment: Single cell recordings from axons of retinal ganglion cells stimulated by focal ejection of K+ (KCl) from a micropipette; format: cell-based
Experimental: Single cell recordings were made from the axons of rabbit retinal ganglion cells in vitro. Data was recorded and analyzed using Spike2 (Cambridge Electronic Design). The ganglion cells were stimulated over the optical receptive field with a multibarrel micropipette (7-barrel, FHC, Inc.) which contained various concentrations of KCl (0-30 mM in an osmotically balanced NaCl solution (˜300 mOsm). The micropipette solutions were ejected by using a mulitchannel pressure ejector (PM8000, MDI Systems). All solutions contained Azure B (0.5 mg/ml) to enable visualization of the solution being ejected. Pulse durations of 20-100 msecs were used.
Response is shown for a cell stimulated with a 20 msec pulse of 10 mM K^+, pressure of 40 p.s.i. and a volume of approximately 100 pL. […] A modest increase (10 mM) in K^+ concentration increases the spike count from 35 to 80 spikes. Further increases in concentration to 15 mM and 30 mM increases the spike rate to 240 and 272 spikes, respectively. […] The histograms are summed responses from 10 trials as indicated by the raster plot.
Data was collected from 5 cells and the total spike count was obtained from the PSTH. The spontaneous activity (control record) was subtracted, divided by the number of repetitions and the median is plotted. The error bars shown are the standard deviations normalized by the median.
The large secondary lobe in the potassium response may be due to the fluid flow pattern that may have stimulated adjacent cells. Overall receptive field size is […] for a light evoked response.

SMILES	pKa [1]	overall receptive field size, potassium evoked response ([2]; 30 mM [K+])	receptive field size, primary lobe, potassium evoked response ([2]; 30 mM [K+])	increase in background K+ concentration sufficient to excite the firing of an action potential by retinal ganglion cells ([2]; rabbit retina, in vitro)	spike count (PSTH, summed responses from 10 trials) ([2]; representative cell, 10 mM K+, count without K+ increase 35)	spike count (PSTH, summed responses from 10 trials; given as spike rate) ([2]; representative cell, 15 mM K+)	spike count (PSTH, summed responses from 10 trials; given as spike rate) ([2]; representative cell, 30 mM K+)
O=C(O)[C@H](O)[C@@H](O)[C@H](O)[C@H](O)CO [Gluconic acid, gluconic acid]	~3.6						
[K+] [K^+]		400 µm	100 µm	~10 mM	80 spikes	240 spikes	272 spikes
